Test results from US20260317356A1, “SMALL MOLECULE MODULATORS OF OGG1” (AZKARRA THERAPEUTICS, INC., priority 2023, published 2026).

How the values were obtained:
hOGG1 = hOGG1 (Homo sapiens, UniProt O15527); assay: Biochemical fluorescence assay to measure enzymatic activity of hOGG1 (OGG1/APEX IC50); set-up: Protein His-hOGG1 (12-323) was prepared; His (N); host or cells: E. coli; conditions: 1 nM OGG1+2 nM APEX+6 nM dsDNA (8-oxo-dG substrate); pH 7.5; RT 40 min; read-out: OGG1/APEX IC50
Outline: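 Coupled glycosylase/AP-endonuclease read-out: 8-oxo-dG-containing dsDNA (6 nM) cleaved by 1 nM His-hOGG1 (12-323) plus 2 nM APEX1 over 40 min at room temperature, after 20 min enzyme–compound preincubation; buffer 20 mM Tris pH 7.5, 100 mM KCl, 0.1% BSA, 0.01% Tween. IC50 comes from sigmoidal 3-parameter fitting of % inhibition derived from TAMRA signal.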

nLucOGG1 in HeLa cells = molecular target: T1, nLucOGG1 in HeLa cells (Homo sapiens, UniProt O15527); assay: Cellular Thermal Shift Assay to measure compound affinity for nLucOGG1 in HeLa cells (CETSA DTm); assay type: cell-based; conditions: 10 μM compound, 37° C. 60 min, Tm vs DMSO control
T1 construct: thermal shift read by NanoGlo luminescence
Experimental: Biological Example 2: Cellular Thermal Shift Assay to Measure Compound Affinity for ^nLucOGG1 in HeLa Cells (CETSA DTm)
Cell Culture and Transfection of Hela Cells with ^nLucOGG1: For all tests, Hela cells were maintained in growth medium, Dulbecco's Minimum Eagle Medium (Multicell: Cat #319-005-CL) supplemented with 10% heat-inactivated fetal bovine serum (Gibco: Cat #12484-028) at 37° C. and 5% CO2 in a humidified tissue culture incubator. Transient transfections were performed using the Lonza 4-D Nucleofector X unit according to the manufacturer's protocol (Lonza Cat #V4XC-1024). Briefly, for each transfection, 1.2×10^6 cells were centrifuged at 1000 RPM for 5 minutes at room temperature before being diluted in 100 μL SE solution containing 18% v/v supplement and 1.5 μg pNF1-N-empty or pNF1-N-OGG1a vector. The total volume was transferred to a 100 μL nucleofection cuvette prior to transfer to the apparatus where HeLa cell nucleofection protocol CN-114 was executed. Following nucleofection, 500 μL complete media was added to the cells in the cuvette before transferring to a 6-well dish containing 1.5 mL of complete media. Cells were left to incubate for 48 hours before performing all cellular thermal shift experiments.
Cellular Thermal Shift Assays for Target Engagement (CETSA): Forty-eight hours following nucleofection, cells were washed once with DPBS−/−(Multicell: Cat #311-425-CL) and lifted with 0.25% Trypsin-EDTA (Multicell: Cat #325-043-CL) prior to dilution in growth medium and centrifugation at 1000 RPM for 5 minutes at room temperature. The resulting cell pellet was then resuspended in growth medium, cells were counted and the volume adjusted to 500 k cells/mL (2×).
For delta Tm determination, OGG1 inhibitor compounds were dissolved in DMSO to a final working concentration of 20 mM. Working solutions were then diluted in complete media to 20 μM or 0.1% DMSO for the vehicle control (2×). 2×OGG1 inhibitor compound solutions or 0.1% DMSO control were then pre-dispensed into MicroAmp Optical 96-well PCR reaction plates (Applied Biosystems: Cat #4346906) at 50 μL/well. Next, 50 μL or 25 k cells/well from the 2× cell suspension was added to the pre-loaded PCR plates. All plates were prepared as duplicates, covered with adhesive plate sealers (Perkin Elmer: Cat #6050185) and left to incubate at 37° C. for 60 minutes. During incubation, sufficient NanoGlo luciferase assay reagents (Promega: Cat #N1120) were left to equilibrate to room temperature in the dark. Immediately before heating the plates, the NanoGlo substrate was mixed with the NanoGlo buffer at a 1:50 ratio. The thermal cycler (Veriti 96-Well Thermal Cycler, Thermo Fisher Scientific) was allowed to reach the designated temperature prior to placement of the PCR plate into the heating block. For Tm determination experiments, duplicate plates containing a fixed concentration of test compound (10 μM final) as well as vehicle control were prepared to perform a 12-point temperature gradient spanning 37-70° C. for 3 minutes. Therefore, two thermal cycler protocols were set up covering two 6-step temperature gradients ranging from 37-52° C. and 52-70° C. Plates were then allowed to cool at room temperature for 5 minutes after the heat treatment followed by transfer of 75 μL of the reaction into a 96-well white polystyrene microplate (Corning: Cat #CLS3903) and addition of 75 μL of the prepared NanoGlo mixture. Microplates were then left to shake in the dark for 5 minutes before total luminescence was measured on a SpectraMax IX3 plate reader. The luminescence value obtained at each temperature was normalized to the luminescence obtained at 37° C. and the ratio obtained was plotted against the temperature. A Boltzman Sigmoidal non-linear regression was applied to the resulting data to determine Tm values and the difference between the Tm value for a given OGG1 inhibitor relative to the DMSO vehicle control was the delta Tm.

Chain of hOGG1 (O15527 12-323): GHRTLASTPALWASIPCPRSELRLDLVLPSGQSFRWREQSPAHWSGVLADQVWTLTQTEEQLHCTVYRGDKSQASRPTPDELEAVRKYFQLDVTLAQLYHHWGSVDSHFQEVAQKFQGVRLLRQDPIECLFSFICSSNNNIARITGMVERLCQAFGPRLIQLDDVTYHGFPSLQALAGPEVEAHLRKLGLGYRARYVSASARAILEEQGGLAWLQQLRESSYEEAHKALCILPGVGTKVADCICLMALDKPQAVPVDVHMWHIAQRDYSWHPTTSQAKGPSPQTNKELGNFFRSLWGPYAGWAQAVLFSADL
T1 sequence (O15527 whole entry): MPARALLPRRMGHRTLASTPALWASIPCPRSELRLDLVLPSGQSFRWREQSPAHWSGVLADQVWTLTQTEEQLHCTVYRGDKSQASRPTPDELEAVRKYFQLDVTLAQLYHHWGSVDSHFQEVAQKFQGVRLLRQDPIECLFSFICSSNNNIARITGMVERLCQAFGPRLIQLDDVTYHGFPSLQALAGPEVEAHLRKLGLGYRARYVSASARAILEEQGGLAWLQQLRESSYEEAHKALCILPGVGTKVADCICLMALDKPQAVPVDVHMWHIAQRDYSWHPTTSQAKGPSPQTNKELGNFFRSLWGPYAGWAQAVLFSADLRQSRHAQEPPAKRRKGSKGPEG

Structure (SMILES)	IC50 (hOGG1) [nM]	ΔTm at 10 µM (nLucOGG1 in HeLa cells) [°C]
COc1cc(NC(=O)[C@H]2CC[C@@H](N3Cc4ccccc4NC3=O)CC2)ccc1C [Example 67, (1s,4s)-N-(3-methoxy-4-methylphenyl)-4-(2-oxo-1,2-dihydroquinazolin-3(4H)-yl)cyclohexanecarboxamide]	100 to 1000	6 to 8
COc1ccc(NC(=O)[C@H]2CC[C@@H](N3Cc4c(C)cccc4C3=O)CC2)cc1C#N [Example 239, (1s,4s)-N-(3-Cyano-4-methoxyphenyl)-4-(4-methyl-1-oxoisoindolin-2-yl)cyclohexanecarboxamide]	100 to 1000	6 to 8
COc1ccc(NC(=O)[C@H]2CC[C@@H](N3Cc4c(C)ccc(OC)c4NC3=O)CC2)cc1Cl [Example 3, (1s,4s)-N-(3-Chloro-4-methoxyphenyl)-4-(8-methoxy-5-methyl-2-oxo-1,2-dihydroquinazolin-3(4H)-yl)cyclohexanecarboxamide]	100 to 1000	6 to 8
COc1cc(NC(=O)[C@H]2CC[C@@H](N3Cc4c(C)ccc(N5CC6(COC6)C5)c4NC3=O)CC2)ccc1C [Example 35, (1s,4s)-N-(3-Methoxy-4-methylphenyl)-4-(5-methyl-2-oxo-8-(2-oxa-6-azaspiro[3.3]heptan-6-yl)-1,2-dihydroquinazolin-3(4H)-yl)cyclohexanecarboxamide]	100 to 1000	6 to 8
COc1ccc(NC(=O)[C@H]2CC[C@@H](N3Cc4c(C)cccc4C3=O)CC2)cc1C [Example 227, (1s,4s)-N-(4-Methoxy-3-methylphenyl)-4-(4-methyl-1-oxoisoindolin-2-yl)cyclohexanecarboxamide]	100 to 1000	6 to 8
COc1cc(NC(=O)[C@H]2CC[C@@H](N3Cc4c(C)cc(N5CC6(COC6)C5)cc4NC3=O)CC2)ccc1C [Example 30, (1s,4s)-N-(3-Methoxy-4-methylphenyl)-4-(5-methyl-2-oxo-7-(2-oxa-6-azaspiro[3.3]heptan-6-yl)-1,2-dihydroquinazolin-3(4H)-yl)cyclohexanecarboxamide]	< 100	8 to 10
COc1ccc(NC(=O)[C@H]2CC[C@@H](N3Cc4c(C)ccnc4NC3=O)CC2)cc1Cl [Example 14, (1s,4s)-N-(3-Chloro-4-methoxyphenyl)-4-(5-methyl-2-oxo-1,2-dihydropyrido[2,3-d]pyrimidin-3(4H)-yl)cyclohexanecarboxamide]	100 to 1000	6 to 8
COc1ccc(NC(=O)[C@]2(C)CC[C@H](N3Cc4c(C)ccc(OC)c4NC3=O)CC2)cc1Cl (single isomer, unassigned) [Example 7, (1s,4s)-N-(3-chloro-4-methoxyphenyl)-4-(8-methoxy-5-methyl-2-oxo-1,2-dihydroquinazolin-3(4H)-yl)-1-methylcyclohexanecarboxamide]	< 100	8 to 10
COc1cc(NC(=O)[C@H]2CC[C@@H](N3Cc4c(C)ccnc4NC3=O)CC2)ccc1C [Example 41, (1s,4s)-N-(3-Methoxy-4-methylphenyl)-4-(5-methyl-2-oxo-1,2-dihydropyrido[2,3-d]pyrimidin-3(4H)-yl)cyclohexanecarboxamide]	< 100	6 to 8
COc1ccc(NC(=O)[C@H]2CC[C@@H](N3Cc4c(C)ccc(OC)c4NC3=O)CC2)cc1C#N [Example 2, (1s,4s)-N-(3-Cyano-4-methoxyphenyl)-4-(8-methoxy-5-methyl-2-oxo-1,2-dihydroquinazolin-3(4H)-yl)cyclohexanecarboxamide]	100 to 1000	6 to 8
COc1cc(NC(=O)[C@H]2CC[C@@H](N3Cc4c(C)ccc(P(C)(C)=O)c4NC3=O)CC2)ccc1C [Example 5, (1s,4s)-4-(8-(Dimethylphosphoryl)-5-methyl-2-oxo-1,2-dihydroquinazolin-3(4H)-yl)-N-(3-methoxy-4-methylphenyl)cyclohexanecarboxamide]	100 to 1000	6 to 8
COc1cc(NC(=O)[C@H]2CC[C@@H](N3Cc4c(C)cnc(CNC(C)=O)c4NC3=O)CC2)ccc1C [Example 19, (1s,4s)-4-(8-(Acetamidomethyl)-5-methyl-2-oxo-1,2-dihydropyrido[3,4-d]pyrimidin-3(4H)-yl)-N-(3-methoxy-4-methylphenyl)cyclohexanecarboxamide]	< 100	8 to 10
COc1cc(NC(=O)[C@H]2CC[C@@H](N3Cc4c(C)cc(-c5nnco5)cc4NC3=O)CC2)ccc1C [Example 92, (1s,4s)-N-(3-methoxy-4-methylphenyl)-4-(5-methyl-7-(1,3,4-oxadiazol-2-yl)-2-oxo-1,2-dihydroquinazolin-3(4H)-yl)cyclohexanecarboxamide]	< 100	8 to 10
COc1ccc(NC(=O)[C@H]2CC[C@@H](N3Cc4c(C)cc(NCCN(C)C)cc4NC3=O)CC2)cc1C#N [Example 99, (1s,4s)-N-(3-cyano-4-methoxyphenyl)-4-(7-(2-(dimethylamino)ethylamino)-5-methyl-2-oxo-1,2-dihydroquinazolin-3(4H)-yl)cyclohexanecarboxamide]	< 100	8 to 10
COc1cc(NC(=O)[C@H]2CC[C@@H](N3Cc4c(C)cc(CN)cc4NC3=O)CC2)ccc1C [Example 28, (1s,4s)-4-(7-(Aminomethyl)-5-methyl-2-oxo-1,2-dihydroquinazolin-3(4H)-yl)-N-(3-methoxy-4-methylphenyl)cyclohexanecarboxamide]	< 100	> 10
COc1cc(NC(=O)[C@]2(C)CC[C@H](N3Cc4c(C)ccc(OC)c4NC3=O)CC2)ccc1C [Example 13, (1s,4s)-N-(3-Methoxy-4-methylphenyl)-4-(8-methoxy-5-methyl-2-oxo-1,2-dihydroquinazolin-3(4H)-yl)-1-methylcyclohexanecarboxamide]	100 to 1000	8 to 10
COc1ccc(NC(=O)[C@H]2CC[C@@H](N3Cc4c(C)ccnc4NC3=O)CC2)cc1C [Example 16, (1s,4s)-N-(4-Methoxy-3-methylphenyl)-4-(5-methyl-2-oxo-1,2-dihydropyrido[2,3-d]pyrimidin-3(4H)-yl)cyclohexanecarboxamide]	< 100	8 to 10
COc1cc(NC(=O)[C@]2(C)CC[C@H](N3Cc4c(C)cccc4C3=O)CC2)ccc1C [Example 277, (1s,4s)-N-(3-methoxy-4-methylphenyl)-1-methyl-4-(4-methyl-1-oxoisoindolin-2-yl)cyclohexane-1-carboxamide]	100 to 1000	8 to 10
COc1cc(NC(=O)[C@H]2CC[C@@H](N3Cc4c(C)ccc(CN)c4NC3=O)CC2)ccc1C [Example 58, (1s,4s)-4-(8-(aminomethyl)-5-methyl-2-oxo-1,2-dihydroquinazolin-3(4H)-yl)-N-(3-methoxy-4-methylphenyl)cyclohexanecarboxamide]	< 100	8 to 10
